Common to all, as to type: physicochemical
Series [1] is described as follows: acid dissociation of the indicator in its electronic ground state (pKa). The note with it: for pKa acidic form (BH^+) in ground state: indicator base, conjugate acid BH^+; for pKa acidic form (AH) in ground state: indicator acid AH. From the text:
Ka acid constant (dissociation equilibrium
pK value of an acid or conjugate acid
The pKa value of the electronically non-excited acid (AH or BH^+) is in the relevant measuring range.

Series [2] in a line: acid dissociation of the indicator in its electronically excited state (pKa *). As to conditions: for pKa * value in the excited state exceeds the pKa value in the ground state by: increase. From the text: S and .tau.B of the acidic forms (AH*, BH^+*) and basic forms (S^-*, B*) of the indicator differ from each other. In both fundamental instances the measured luminescence decay time .tau. is a function of the luminescence decay times .tau.B and .tau.S, their weighting depending on the pH prevailing in the sample.
The pKa * value of the electronically excited acid (AH* or BH^+*) is in the relevant measuring range.

The nature of series [3]: luminescence decay time of the acidic and basic forms of the indicator in the excited state. As to conditions: for luminescence decay time excited state .tau.(B*): excited base B*; for luminescence decay time excited state .tau.(BH+*): excited conjugate acid BH^+*; for luminescence decay time excited state .tau.(AH*): excited acid AH*; for luminescence decay time excited state .tau.(A-*): excited conjugate base A^-*. The protocol:
.tau. lifetime of the excited state (luminescence
(§1) In an embodiment of the invention referring to item 1, the indicator is immobilized on a solid substrate, for example, and is brought into contact with the sample. […] After separation of the exciting light by means of a cut-off filter, fluorescence is detected over a broad band of the spectrum (for instance, by means of a photomultiplier or a pin photodiode) and decay time is measured electronically. As dissociation takes place in the ground state, both the absorption spectrum and the fluorescence spectrum are modified, which will have no negative effect on the measurement, however, due to the broad-band character of excitation and detection, or rather, due to the choice of the excitation wavelength in the overlap region of the absorption spectra and the broad detection band. Via a stored calibrating function the recorded decay times may be converted into pH values by a computer.
(§2) In an embodiment of the invention referring to item 2, a suitable indicator is immobilized on a solid substrate, and is dipped into the sample. Excitation takes place monochromatically with the use of a short-time light source (e.g., a coaxial flashlamp) and a color filter tuned to the absorption wavelength of the indicator (e.g., an interference filter). After separation of the exciting light by means of a cut-off filter, emission is detected over a broad band of the spectrum (for instance, by means of a photomultiplier or a pin photodiode). The pH value again is determined from the measured decay time via a stored calibrating function.

The nature of series [4]: excitation/emission maxima of the acidic and basic forms of the indicator. The note with it: for emission maximum basic form / excitation maximum basic form: B; for emission maximum conjugate acidic form / excitation maximum conjugate acidic form: BH^+; for emission maximum acidic form / excitation maximum acidic form: AH; for emission maximum conjugate basic form / excitation maximum conjugate basic form: A^-. The protocol: as §1, §2

Series [5] is described as follows: pH measuring range of the indicator via luminescence decay time. As to the method: as §1, §2
The mark [6] stands for this setting: excited vs ground state, decrease.

Consider five molecules from patent publication US5308581A, “Substance of an optical fluorescence measuring arrangement for measuring the pH of a sample and optical sensor with such an indicator substance” (AVL Medical Instruments AG, priority 1990, dated 1994).

Where two headings read alike, the source gives them in different places.

Regarding `O=c1c2ccccc2[nH]c2ccccc12` [9(10H)-acridone], the “pKa acidic form (BH^+) in ground state” value in series [1] is reported as 0.02. The “pKa * value in the excited state exceeds the pKa value in the ground state by” value in series [2] (excited vs ground state) turned out to be 1.7 units. In addition, in series [3], the “luminescence decay time excited state .tau.(B*)” value is 26 ns and the “luminescence decay time excited state .tau.(BH+*)” value was 15 ns. In series [4], the “emission maximum basic form” value was found to be 440 nm, the “excitation maximum basic form” value turned out to be 383 nm, the “emission maximum conjugate acidic form” value amounted to 456 nm and the “excitation maximum conjugate acidic form” value is 399 nm. The measuring range in series [5] is on record as 0.5-2.5 pH.

As to `O=C(O)Cc1c[nH]c2ccccc12` [3-indolylacetic acid], in series [1], the “pKa acidic form (AH) in ground state” value was around 3. Further, the “pKa * value in the excited state is lower than the pKa value in the ground state by” value in series [2] is given as “approx. 2 units”. In series [3], the “luminescence decay time excited state .tau.(AH*)” value is 2.5 ns and the “luminescence decay time excited state .tau.(A-*)” value was determined as 9.0 ns. In series [4], the “emission maximum acidic form” value worked out at 340 nm, the “excitation maximum acidic form” value amounted to 278 nm, the “emission maximum conjugate basic form” value came to 340 nm and the “excitation maximum conjugate basic form” value worked out at 285 nm. Moreover, the measuring range in series [5] was 2-4 pH.

In the case of `c1ccc2nc3ccccc3cc2c1` [Acridine], the “pKa acidic form (BH^+) in ground state” value in series [1] worked out at 5.45. In series [2] (excited vs ground state), the “pKa * value in the excited state exceeds the pKa value in the ground state by” value is 5.25 units. Moreover, in series [3], the “luminescence decay time excited state .tau.(B*)” value amounted to 14 ns and the “luminescence decay time excited state .tau.(BH+*)” value is given as 33 ns. In series [4], the “emission maximum basic form” value is listed as 430 nm, the “excitation maximum basic form” value is on record as 356 nm, the “emission maximum conjugate acidic form” value was found to be 475 nm and the “excitation maximum conjugate acidic form” value is on record as 356 nm. For the same molecule, in series [5], the measuring range was 4.0-7.0 pH.

Take `O=Cc1ccccc1O` [Salicylaldehyde]: the “pKa acidic form (AH) in ground state” value in series [1] is recorded as around 8.5. In series [2] (setting [6]), the “pKa * value in the excited state is lower than the pKa value in the ground state by” value is “approx. 6.5 units”. Moreover, in series [3], the “luminescence decay time excited state .tau.(AH*)” value is below 1 ns and the “luminescence decay time excited state .tau.(A-*)” value was around 3 ns. Moreover, in series [4], the “emission maximum acidic form” value is given as 525 nm, the “excitation maximum acidic form” value was determined as 327 nm, the “emission maximum conjugate basic form” value was determined as 400 nm and the “excitation maximum conjugate basic form” value came out at 380 nm. Also, in series [5], the measuring range is listed as 7-10 pH.

As to `Oc1ccc2ccccc2c1` [Example 2-naphthol, 2-naphthol], the “pKa acidic form (AH) in ground state” value in series [1] was around 9.8. For the same molecule, the “pKa * value in the excited state is lower than the pKa value in the ground state by” value in series [2] (setting [6]) turned out to be 7 units. Moreover, in series [3], the “luminescence decay time excited state .tau.(AH*)” value is 9.0 ns and the “luminescence decay time excited state .tau.(A-*)” value came to 4.8 ns. In addition, in series [4], the “emission maximum acidic form” value amounted to 356 nm, the “excitation maximum acidic form” value is given as 328 nm, the “emission maximum conjugate basic form” value is on record as 410 nm and the “excitation maximum conjugate basic form” value was determined as 348 nm. Moreover, in series [5], the measuring range is 1.2-4.3 pH.
